Data on 1 compound can be found in patent publication US20220193072A1, “METHODS OF TREATING BREAST CANCER WITH TETRAHYDRONAPHTHALENE DERIVATIVES AS ESTROGEN RECEPTOR DEGRADER” (Arvinas Operations, Inc., priority 2020, published 2022).

Structures are written as SMILES.

One data set relates to T47D ESR1 D538G cells. The data set is described as follows: Live-cell imaging growth studies and EC50 for growth inhibition, T47D ESR1 D538G. It counts as cell-based. The note with it: Homo sapiens; T47D ESR1 D537G (so in the source); read-out: Approximate Half-maximal Effective Concentration (EC50) for growth inhibition. On the procedure: (§1) MCF7, T47D, T47D ESR1 Y537S or T47D ESR1 D538G cells were seeded at 2×10^5 density per well in 6-well tissue culture-treated plates in DMEM/F12/10% FBS (2 mL total volume). […] The plate was then placed in the Incucyte® S3 Live-Cell Analysis System and images were acquired every 4 hours for a total of 5 days (120 hours). Data were analyzed using the Incucyte® Software v2020C which quantified cell surface area coverage as confluence values. Relative growth was calculated for all timepoints for all growth conditions relative to the confluence value observed for the control at 120 hours. Graphing and statistical analyses were performed using Graphpad Prism (GraphPad Software).

Data set [1] is described as follows: Phase I dose escalation safety. As to conditions: 30 mg/day cohort, n=3. It is filed as in vivo, human. The text has this: A Phase I Clinical Trial with Compound (I-c) was undertaken. A traditional 3+3 dose escalation design was implemented. […] Dose increases were dependent on toxicities.
The key entry criteria for this trial were: ER+/HER2− advanced breast cancer; at least two prior endocrine therapies in any setting, and a CDK4/6 inhibitor; and up to three prior cytotoxic chemotherapy regimens.

Data set [2] has as its system ESR1 variants Y537S and D538G. Put plainly: In vitro ERα degradation in ESR1 variant cell lines. It counts as cell-based, human. The note with it: FIG. 15.
The next data set has as its system estrogen receptor. The data set is described as follows: In vitro ER degradation in ER-positive breast cancer cell lines (DC50). The note with it: wild-type and variant ERα expressing cell lines.
For the next data set, the system named is MCF7 cells. Put plainly: Live-cell imaging growth studies and EC50 for growth inhibition, MCF7. It is filed as cell-based. The note with it: Homo sapiens, read-out: Approximate Half-maximal Effective Concentration (EC50) for growth inhibition. As to the method: as §1

Consider `O=C1CC[C@H](N2Cc3cc(N4CCN(CC5CCN(c6ccc([C@@H]7c8ccc(O)cc8CC[C@@H]7c7ccccc7)cc6)CC5)CC4)ccc3C2=O)C(=O)N1` [Compound (I-c), (3S)-3-[5-[4-[[1-[4-[(1R,2S)-6-hydroxy-2-phenyl-tetralin-1-yl]phenyl]-4-piperidyl]methyl]piperazin-1-yl]-1-oxo-isoindolin-2-yl]piperidine-2,6-dione], for which, in the data set with T47D ESR1 D538G cells, the EC50 worked out at 10 nM. Moreover, in data set [1], the dose limiting toxicity result is “no dose limiting toxicity” and the “treatment related adverse events” value was “no treatment related adverse events”. Also, the “degradation of clinically-relevant ESR1 variants Y537S and D538G” value in data set [2] is on record as “degrades”. Also, in the data set with estrogen receptor, the ERα degradation potency result is recorded as “single-digit nanomolar”. Moreover, the EC50 in the data set with MCF7 cells came to 10 nM.
